Each structure is given as a SMILES string.

The test system of this assay is CD8+pentamer+ TEM cells. Briefly: Cross-presentation of apoptotic cells. It counts as cell-based, patients with acute HCV infection. The settings on record: DCs pulsed with apoptotic T cells previously treated with the inhibitor; five independent patients. Here is the method: […]. Then, cells were induced to apoptosis by incubation with 500 ng/ml anti-Fas (anti-CD95 mAb [clone CH11], Upstate Biotechnology) for at least 6 h. Apoptotic cells were determined by staining with Annexin- V (ApoAlert Apoptosis Kit, Clontech Laboratories Inc), PI (Sigma-Aldrich) and flow-cytometry analysis. PBMCs were double-stained with pentamers and mAb to CD8 and cultured with iDCs that had been pulsed or not with apoptotic cloned T cells. After 6-8 h, cells were tested for their capacity to produce IL-17 and IFN-γ by intracellular cytokine staining (ICS) as described above. Cells were washed, acquired with a FACSCanto flow cytometer and analyzed with FACSDiva analysis software (Becton Dickinson) or FlowJo software (Treestar).
It is for interest the finding that fresh apoptotic epitope-specific CD8^+pentamer^+ TEM cells promptly produced IFN-γ or IL-17 ex vivo within a few hours of contact with DCs that had been pulsed with apoptotic T cells (i.e., through the cross-presentation mechanism) (Figure 25A,B). […] This phenomenon was confirmed in five independent patients (Figure 25B). The frequencies of apoptotic epitope-specific CD8^+ T cells (but not those of viral epitope-specific CD8^+ T cells [data not shown]) correlated with the number of circulating apoptotic T cells (Figure 25C). […]

Turning to `COC(=O)CC[C@H](NC(=O)[C@H](CC(=O)OC)NC(=O)OCc1ccccc1)C(=O)N[C@H](C(=O)N[C@@H](CC(=O)OC)C(=O)CF)C(C)C` [C3I, Z-DEVD-FMK], the “IFN-γ or IL-17 production” value is reported as “marked decrease”.

The values are drawn from patent publication EP2710378B1, “METHOD TO PROGNOSE VIRAL INFECTION BY MEASURING T CELL RESPONSE OR AUTO-ANTIBODIES TO APOPTOTIC EPITOPES” (Università degli Studi di Roma "La Sapienza", priority 2011, dated 2012).
